Results from publication PMC8041284, “Tunable Methacrylamides for Covalent Ligand Directed Release Chemistry” (Journal of the American Chemical Society, 2021).
Read-outs that look alike come from different tables or passages of the source.

Target: BTK (Homo sapiens, UniProt Q06187)
Assay: biochemical
[1] = read-out: BTK inhibition (%), 0.75 uM BTK, […] probe 3l, 15 min preincubation

Chain of BTK (Q06187 402-655 limits assumed): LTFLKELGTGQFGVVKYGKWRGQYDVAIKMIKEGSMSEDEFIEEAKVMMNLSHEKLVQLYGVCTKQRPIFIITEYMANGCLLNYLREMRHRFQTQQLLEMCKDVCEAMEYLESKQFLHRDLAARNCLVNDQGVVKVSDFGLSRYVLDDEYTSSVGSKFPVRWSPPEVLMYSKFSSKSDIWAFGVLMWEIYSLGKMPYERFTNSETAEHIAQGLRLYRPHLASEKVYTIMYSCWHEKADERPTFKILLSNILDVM

| SMILES | inhibition at 10 µM [1] [%] | inhibition at 10 µM (read-out: BTK inhibition (%)) [%] |
| --- | --- | --- |
| Nc1ccc(F)cc1NC(=O)c1ccc(CNC(=O)/C=C/c2cccnc2)cc1 [PCM-0215868] | -5.4 |  |
| N#CC1(c2ccc(NC(=O)c3cccnc3NCc3ccncc3)cc2)CCCC1 [PCM-0095263] | 2.8 |  |
| Cc1ccc(CNc2ncnc3ccc(-c4ccc(CO)o4)cc23)o1 [PCM-0215296] | 6.9 |  |
| OC(c1cc(-c2ccc(Cl)cc2)nc2ccccc12)C1CCCCN1 (stereo not shown) [PCM-0215603] | 19.3 |  |
| O=C(Nc1ccc(OC(F)(F)F)cc1)c1sccc1NCc1ccnc2ccccc12 [PCM-0094951] | 90.3 |  |
| Cc1ccc(S(=O)(=O)Nc2nc3ccccc3nc2Nc2ccc3nsnc3c2)cc1 [PCM-0094918] | -1.7 |  |
| CC(C)(c1ccc(OCC(O)CO)cc1)c1ccc(OCC(O)CCl)cc1 (stereo not shown) [PCM-0215567] | -2.3 |  |
| C/C(=C(\CCOC(=O)c1ccccc1)SC(=O)c1ccccc1)N(C=O)Cc1cnc(C)nc1N [PCM-0216084] | 4.6 |  |
| COc1cc(O)c(C(=O)/C=C/c2ccccc2)c(OC)c1 [PCM-0216315] | 6.9 |  |
| CCCCCCC1CCC(=O)O1 (stereo not shown) [PCM-0216147] | 0 |  |
| CC12CCC(CC1)C(C)(C)O2 [PCM-0215918] | 11 |  |
| O=C(O)c1c[nH]c2cc(Cl)c(-c3ccc(C4(O)CCC4)cc3)cc12 [PCM-0215881] | 24.7 |  |
| Cc1sc2c(c1C)C(c1ccc(Cl)cc1)=N[C@@H](CC(N)=O)c1nnc(C)n1-2 [PCM-0215329] | -14.7 |  |
| CCCc1nc(C(C)(C)O)c(C(=O)OCc2oc(=O)oc2C)n1Cc1ccc(-c2ccccc2-c2nn[nH]n2)cc1 [PCM-0086318] | 0.8 |  |
| CCN1CCN(Cc2ccc(C(=O)Nc3ccc(C)c(Oc4ccc5c(c4)CC(=O)N5)c3)cc2C(F)(F)F)CC1 [PCM-0213332] | 20.7 |  |
| CCN1CCC[C@H]1CNC(=O)c1cc(S(N)(=O)=O)ccc1OC [PCM-0065527] | -6.2 |  |
| CC[N+](CC)(CC)CCOc1cccc(OCC[N+](CC)(CC)CC)c1OCC[N+](CC)(CC)CC [PCM-0065294] | 9.3 |  |
| CC(Nc1nc(N2CCCC2)nc2ccccc12)c1ccccc1 (stereo not shown) [PCM-0215774] | -23.2 |  |
| CC/C(=C(\c1ccc(O)cc1)c1ccc(OCCNC)cc1)c1ccccc1 [PCM-0215485] | 14.7 |  |
| CCOc1ccc(NC(C)=O)cc1 [PCM-0086095] | 5.5 |  |
| Clc1ccc2nsnc2c1NC1=NCCN1 [PCM-0065635] | 14.8 |  |
| CC1=CCC2C(C1)C2(C)C (stereo not shown) [PCM-0216215] | 8.5 |  |
| Clc1ccc(C(c2ccccc2Cl)C(Cl)Cl)cc1 (stereo not shown) [PCM-0064460] | 19.5 |  |
| Cc1cc(Nc2cc(N)ncn2)c(=O)n2c1C(=O)NC21CCCCC1 [PCM-0203357] | 6.9 |  |

| SMILES | inhibition at 10 µM [1] [%] | inhibition at 10 µM (read-out: BTK inhibition (%)) [%] |
| --- | --- | --- |
| O=C(c1cccc(Br)c1)N1CCC(N2CCCC2)CC1 [PCM-0216085] | -17.8 |  |
| OC[C@H]1O[C@@H](Oc2cc(O)cc(/C=C/c3ccc(O[C@@H]4O[C@H](CO)[C@@H](O)[C@H](O)[C@H]4O)cc3O)c2)[C@H](O)[C@@H](O)[C@@H]1O [PCM-0216371] | -5.4 |  |
| CNc1cccc(CCOc2ccc3c(c2)CN(CC(F)(F)F)C(=O)[C@H](CC(=O)O)C3)n1 [PCM-0215443] | 8.5 |  |
| CCNc1nc(Nc2cc(F)c(C(=O)N3CCOCC3)cc2OC)ncc1C(F)(F)F [PCM-0215337] | -9 |  |
| O=P(O)(O)OC(CO)CO [PCM-0215880] | 11.9 |  |
| CC1=C[C@H]2Cc3[nH]c(=O)ccc3[C@]3(C1)NCCC[C@H]23 [PCM-0216475] | -10 |  |
| CC1CC(=O)c2c(ccc3c2C(=O)c2cccc(O)c2C3=O)C1 (stereo not shown) [PCM-0215599] | -3.1 |  |
| O=c1sn(-c2cccc3ccccc23)c(=O)n1Cc1ccccc1 [PCM-0095450] | -12.4 |  |
| NC(=O)c1cccc2[nH]c(-c3ccc([C@@H]4CCCN4)cc3F)nc12 [PCM-0214633] | 17.1 |  |
| C=CCc1ccc(O)c(-c2cc(CC=C)ccc2O)c1 [PCM-0094865] | 16.3 |  |
| CC(=O)N1CCN(c2ccc(NC(=O)Cc3cnc(-c4ccnc(F)c4)c(C)c3)nc2)CC1 [PCM-0215890] | -10.8 |  |
| FC(F)(F)c1ccc(/C=C/c2nc(COc3ccc(CCCCn4ccnn4)cc3)co2)cc1 [PCM-0095252] | 13.1 |  |
| Cc1ccc2c(=O)c3cccc(CC(=O)O)c3oc2c1C [PCM-0095095] | -7.8 |  |
| COC(=O)c1ccc2c(c1)nc(NC(=O)c1ccccc1)n2CCCc1ccccc1 [PCM-0215403] | 0 |  |
| COc1ccc(C(NC(=O)c2cnc(-c3cccnn3)[nH]c2=O)c2ccc(OC)cc2)cc1 [PCM-0215803] | 18.5 |  |
| Oc1ccc(CC2NCCc3cc(O)c(O)cc32)cc1 (stereo not shown) [PCM-0214948] | -5.4 |  |
| N#Cc1c(NC(=O)c2cccc3ccccc23)sc2c1CCCC2 [PCM-0095805] | 16.6 |  |
| CC(=O)OCC1=C(C(=O)O)N2C(=O)[C@@H](NC(=O)Cc3cccs3)[C@H]2SC1 [PCM-0214820] | -12.5 |  |
| C=CC(C)(O)CCC=C(C)C (stereo not shown) [PCM-0091203] | -9.3 |  |
| C[N+](C)(C)CCCCCC[N+](C)(C)C [PCM-0065242] | -14.5 |  |
| FC(F)(F)Oc1ccc(-c2ccc3nnc(C(F)(F)F)n3c2)cc1 [PCM-0216074] | 7.7 |  |
| CC1=C(/C=C/C(C)=C/C=C/C(C)=C/C(=O)O)C(C)(C)CCC1 [PCM-0065434] | -32.7 |  |
| CC(C)C(Br)C(=O)NC(N)=O (stereo not shown) [PCM-0216023] |  | 12.4 |
| C=C(C)[C@@H]1CCC2=CC(=O)C[C@@H](C)[C@]2(C)C1 [PCM-0216368] | 12.4 |  |

More lines, main results first:

| inhibition at 10 µM [1] [%] | SMILES | inhibition at 10 µM (read-out: BTK inhibition (%)) [%] |
| --- | --- | --- |
| -29.6 | Cc1ccc(C)c(OCCCC(C)(C)C(=O)O)c1 [PCM-0085876] |  |
| 10 | CCC1C/C(=C\c2cccnc2)C(=O)/C(=C/c2cccnc2)C1 (stereo not shown) [PCM-0215528] |  |
| 55.6 | COc1ccc2c(O[C@@H]3C[C@H]4C(=O)N[C@]5(C(=O)NS(=O)(=O)C6CC6)C[C@H]5/C=C\CCCCN(C)C(=O)[C@@H]4C3)cc(-c3nc(C(C)C)cs3)nc2c1C [PCM-0215097] |  |
| 113 | Cc1cc2c(C(=O)NC[C@H](C)c3ccccc3)c(O)c(O)cc2c(O)c1-c1c(C)cc2c(C(=O)NC[C@H](C)c3ccccc3)c(O)c(O)cc2c1O [PCM-0215358] |  |
| -17.9 | C[C@H](NC(=O)C(=O)Nc1ccccc1C(C)(C)C)C(=O)N[C@@H](CC(=O)O)C(=O)COc1c(F)c(F)cc(F)c1F [PCM-0215672] |  |
| 1.5 | C[C@@H]1CC(=O)Nc2cccc(-c3ccc4c(c3)c(-c3cnn(C)c3)nn4C)c2N1 [PCM-0215716] |  |
| 7.7 | O=C(Nc1ncc([N+](=O)[O-])s1)c1ccccc1O [PCM-0216250] |  |
| 7.7 | CC(C)(C)/[N+]([O-])=C/c1ccc(S(=O)(=O)O)cc1S(=O)(=O)O [PCM-0095556] |  |
| -5.4 | C[C@]1(O)C[C@@H](O)[C@@H]2C=CO[C@@H](O[C@@H]3O[C@H](CO)[C@@H](O)[C@H](O)[C@H]3O)[C@@H]21 [PCM-0216407] |  |
| 7.7 | CCOc1ccc(Cc2cc([C@]34OC[C@](CO)(O3)[C@@H](O)[C@H](O)[C@H]4O)ccc2Cl)cc1 [PCM-0216244] |  |
| -10 | CC(C)=CCC[C@](C)(O[C@@H]1O[C@H](CO[C@@H]2O[C@@H](CO)[C@H](O)[C@H]2O)[C@@H](O)[C@H](O)[C@H]1O)[C@H]1CC[C@]2(C)[C@@H]1[C@H](O)C[C@@H]1[C@@]3(C)CC[C@H](O[C@@H]4O[C@H](CO)[C@@H](O)[C@H](O)[C@H]4O[C@@H]4O[C@H](CO)[C@@H](O)[C@H](O)[C@H]4O)C(C)(C)[C@@H]3CC[C@]12C [PCM-0216509] |  |
| -7.7 | Nc1nc(=S)c2ncn([C@H]3C[C@H](O)[C@@H](CO)O3)c2[nH]1 [PCM-0215558] |  |
| -9.3 | CCCCCCCC(=O)N[C@H](CN1CCCC1)[C@H](O)c1ccc2c(c1)OCCO2 [PCM-0215629] |  |
| -30.1 | CC(C)CCNc1ncccc1C(=O)N1CCN(Cc2ccccc2)CC1 [PCM-0216256] |  |
| -22.6 | C=C[C@H]1CN2CC[C@H]1C[C@H]2[C@H](O)c1ccnc2ccc(OC)cc12 [PCM-0004959] |  |
| -6.9 | CC(C)C(=O)OCC(=O)[C@@]12O[C@H](C3CCCCC3)O[C@@H]1C[C@H]1[C@@H]3CCC4=CC(=O)C=C[C@]4(C)[C@H]3[C@@H](O)C[C@@]12C [PCM-0214834] |  |
| -17.1 | CC(=O)Nc1ccc(C(=O)Nc2ccccc2N)cc1 [PCM-0095432] |  |
| 17.9 | Cn1cncc1[C@@](N)(c1ccc(Cl)cc1)c1ccc2c(c1)c(-c1cccc(Cl)c1)cc(=O)n2C [PCM-0095125] |  |
| -2.1 | CC(C)C[C@H](NC(=O)CNC(=O)c1cc(Cl)ccc1Cl)B1OC(=O)CC(CC(=O)O)(C(=O)O)O1 (stereo partly shown) [PCM-0095225] |  |
| -25.5 | CCC(=O)N1CCN(c2ccc(-n3c(=O)ccc4cnc5ccc(-c6cnc7ccccc7c6)cc5c43)cc2C(F)(F)F)CC1 [PCM-0095455] |  |
| 6.9 | C=C[C@@](C)(/C=C/c1ccc(O)cc1)CCC=C(C)C [PCM-0094651] |  |
| 16.3 | Cc1cc(C)c2c(c1)[C@@H](N(Cc1cc(C(F)(F)F)cc(C(F)(F)F)c1)c1nnn(C)n1)CCCN2CC1CCC(C(=O)O)CC1 (stereo partly shown) [PCM-0095426] |  |
| 3.1 | O=C(Nc1c(Cl)cncc1Cl)c1ccc(OC(F)F)c(OCC2CC2)c1 [PCM-0095310] |  |
| 19.3 | CC(=O)OCC(=O)[C@@]12OC(C)(C)O[C@@H]1C[C@H]1[C@@H]3C[C@H](F)C4=CC(=O)C=C[C@]4(C)[C@@]3(F)[C@@H](O)C[C@@]12C [PCM-0214700] |  |
| -25.5 | CC(C)c1cnn2c(NCc3ccccc3)cc(NCCCCCCN)nc12 [PCM-0095134] |  |
| 4.7 | CCN(CC)CCOCCOC(=O)C1(c2ccccc2)CCCC1 [PCM-0065027] |  |
| -16.2 | C/C(=C(/CCOC(=O)C(C)C)SS/C(CCOC(=O)C(C)C)=C(\C)N(C=O)Cc1cnc(C)nc1N)N(C=O)Cc1cnc(C)nc1N [PCM-0216636] |  |
| 16.2 | CCOc1cc(C(C)(C)C)ccc1C1=N[C@@](C)(c2ccc(Cl)cc2)[C@@](C)(c2ccc(Cl)cc2)N1C(=O)N1CCN(CCCS(C)(=O)=O)CC1 [PCM-0215548] |  |
